We go through one compound from ChEMBL document CHEMBL4715696, “In vitro synergistic anticancer activity of the combination of T-type calcium channel blocker and chemotherapeutic agent in A549 cells” (Bioorg Med Chem Lett, 2016).

The subject of assay [1] is A549. Description: Decrease in cell cycle associated protein expression in human A549 cells assessed as reduction in cyclin E expression after 48 hrs by Western blot analysis. The following applies: dose 2.5-10 µM. In kind it is functional, cell-based. A general note: A western blot detects proteins with antibodies after separation by electrophoresis.
For assay [2], the system named is A549. In words: Potentiation of etoposide-induced cell cycle arrest in human A549 cells assessed as accumulation at G2/M phase at 10 uM in presence of etoposide after 48 hrs by flow cytometric analysis (Rvb =18.9%). The format is functional.
For assay [3], the system named is A549. In words: Induction of cell cycle arrest in human A549 cells assessed as accumulation at S phase at 5 uM after 24 hrs by flow cytometric analysis (reference value: 17.6%). In kind it is functional.
In assay [4] the test system is A549. Description: Decrease in cell cycle associated protein expression in human A549 cells assessed as fold change in cyclin D2 expression at 10 uM after 24 hrs by Western blot analysis (reference value: 0.77). In kind it is functional.
Assay [5] has as its system A549. Description: Decrease in cell cycle associated protein expression in human A549 cells assessed as fold change in CDK2 expression at 10 uM after 24 hrs by Western blot analysis (reference value: 0.79). The format is functional.

For `CN(C)C(=O)NCCCN(C)C1=Nc2ccccc2C(CC(=O)NCc2ccc(F)cc2)N1c1ccc(C2CCCCC2)cc1` (stereo not given), the values for the Activity result in the assay on A549 [1], in the assay on A549 [2] and in the assay with A549 [3] were “Dose-dependent effect”, 3.2% and 12.4%, respectively. The entries for the “fold change (FC)” value in the assay with A549 [4] and in the assay with A549 [5] were 0.43 and 0.61, respectively.
